The record followed here is patent publication US6469026B2, “Isoquinolone inhibitors of factor Xa” (Millennium Pharmaceuticals, Inc., priority 2000, dated 2002).

The target in one assay is factor Xa (Homo sapiens, UniProt P00742). Description: factor Xa amidolytic assay (XA). The conditions noted are these: substrate S-2765, 5 min preincubation, room temperature, pH 7.5. In kind it is biochemical. The procedure:
The compounds of the present invention are dissolved in buffer to give solutions containing concentrations such that assay concentrations range from 0 to 100 μM. In the assays for thrombin, prothrombinase and factor Xa, a synthetic chromogenic substrate is added to a solution containing test compound and the enzyme of interest and the residual catalytic activity of that enzyme is detennined spectrophotometrically. The IC50 of a compound is determined from the substrate turnover. The IC50 is the concentration of test compound giving 50% inhibition of the substrate turnover.
(§1) The factor Xa and thrombin assays were performed at room temperature, in 0.02 M TrisHCl buffer, pH 7.5, containing 0.15 M NaCl. The rates of hydrolysis of the para-nitroanilide substrate S-2765 (Chromogenix) for factor Xa, and the substrate Chromozym TH (Boehringer Mannheim) for thrombin following preincubation of the enzyme with inhibitor for 5 minutes at room temperature, and were determined using the Softmax 96-well plate reader (Molecular Devices), monitored at 405 nm to measure the time dependent appearance of p-nitroaniline.

The next assay concerns the target T1, thrombin (Homo sapiens, UniProt P00734).
T1 construct: proteolytic cleavage of its precursor prothrombin at the Arg-Thr linkage at positions 271-272 and the Arg-Ile linkage at positions 320-321
Description: thrombin amidolytic assay (IIA). In kind it is biochemical. The conditions noted are these: substrate Chromozym TH, 5 min preincubation, room temperature, pH 7.5. Here is the method:
[…] In the assays for thrombin, prothrombinase and factor Xa, a synthetic chromogenic substrate is added to a solution containing test compound and the enzyme of interest and the residual catalytic activity of that enzyme is detennined spectrophotometrically. The IC50 of a compound is determined from the substrate turnover. The IC50 is the concentration of test compound giving 50% inhibition of the substrate turnover.
as §1

SMILES strings stand for the structures.

Sequence of factor Xa (P00742 235-488 limits assumed): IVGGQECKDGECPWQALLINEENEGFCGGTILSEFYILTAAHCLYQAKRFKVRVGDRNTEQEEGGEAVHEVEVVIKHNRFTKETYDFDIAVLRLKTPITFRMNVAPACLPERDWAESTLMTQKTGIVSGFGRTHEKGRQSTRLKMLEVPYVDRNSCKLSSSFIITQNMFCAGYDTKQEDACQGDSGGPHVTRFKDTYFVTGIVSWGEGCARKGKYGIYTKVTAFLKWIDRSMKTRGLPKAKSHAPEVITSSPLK
Sequence of factor Xa (P00742 41-179 partner limits assumed): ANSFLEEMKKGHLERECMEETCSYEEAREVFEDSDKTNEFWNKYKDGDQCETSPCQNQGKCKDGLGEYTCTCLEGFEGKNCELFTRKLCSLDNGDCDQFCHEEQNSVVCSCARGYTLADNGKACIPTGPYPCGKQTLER

As to `CC(=N)N1CCC(Oc2ccc3c(c2)CCN(C(Cc2cccc(C(=N)N)c2)C(=O)NC(C)(C)C)C3=O)CC1` (centres unmarked) [Example 13], the results for the half-maximal inhibitory concentration (IC50) at factor Xa and against thrombin were 993 nM and 35900 nM, respectively.
Regarding `CC(=N)N1CCC(Oc2ccc3c(c2)CCN(C(Cc2cccc(C(=N)N)c2)C(=O)O)C3=O)CC1` (centres unmarked) [Example 14], the midpoint of inhibition at factor Xa, the IC50, lay at 810 nM.
In the case of `N=C(N)c1cccc(CC(C(=O)O)N2CCc3cc(OC4CCN(C(=N)N)CC4)ccc3C2=O)c1` (centres unmarked) [Example 15], the 50% inhibitory concentration (IC50) (usually the concentration needed to halve the response being measured) against factor Xa is 794 nM.
With `COC(=O)C(Cc1ccc2ccc(C(=N)N)cc2c1)N1CCc2cc(OC3CCN(C(=N)N)CC3)ccc2C1=O` (centres unmarked) [Example 16], the half-inhibitory concentration (IC50) amounted to 693 nM at factor Xa and 228000 nM against thrombin.
In the case of `CC(=N)N1CCC(Oc2ccc3c(c2)CCN(C(Cc2ccc4ccc(C(=N)N)cc4c2)C(=O)O)C3=O)CC1` (centres unmarked) [Example 17], the midpoint of inhibition against factor Xa, the IC50, lay at 348 nM.
The same measure, in the same setting: as for `N=C(N)c1ccc2ccc(CC(C(=O)O)N3CCc4cc(OC5CCN(C(=N)N)CC5)ccc4C3=O)cc2c1` (centres unmarked) [Example 18], the figure is 282 nM.
Regarding `CC(=N)N1CCC(Oc2ccc3c(c2)CCN(C(Cc2ccc4ccc(C(=N)N)cc4c2)C(=O)OC(C)(C)C)C3=O)CC1` (centres unmarked) [Example 19], the IC50 on factor Xa worked out at 258 nM; against thrombin, 119000 nM.
The matching figures for `CC(C)(C)OC(=O)C(Cc1ccc2ccc(C(=N)N)cc2c1)N1CCc2cc(OC3CCN(C(=N)N)CC3)ccc2C1=O` (centres unmarked) [Example 20]: 168 nM and 101000 nM.
In the same order, the values of `COC(=O)C(Cc1cccc(C(=N)N)c1)N1CCc2cc(OC3CCN(C(=N)N)CC3)ccc2C1=O` (centres unmarked) [Example 21] are 152 nM and 402000 nM.
As for `COC(=O)C(Cc1cccc(C(=N)N)c1)N1CCc2cc(OC3CCN(C(C)=N)CC3)ccc2C1=O` (centres unmarked) [Example 22], the IC50 on factor Xa stood at 129 nM; against thrombin, 393000 nM.
In the same order, the values of `CC(C)(C)OC(=O)C(Cc1cccc(C(=N)N)c1)N1CCc2cc(OC3CCN(C(=N)N)CC3)ccc2C1=O` (centres unmarked) [Example 23] are 47.5 nM and 233000 nM.
The matching figures for `CC(=N)N1CCC(Oc2ccc3c(c2)CCN(C(Cc2cccc(C(=N)N)c2)C(=O)OC(C)(C)C)C3=O)CC1` (centres unmarked) [Example 24]: 22.1 nM and 150000 nM.
